Reference: patent publication US5837868A, “Process for preparation of chiral 3-amino-pyrrolidine and analogous bicyclic compounds” (Abbott Laboratories, priority 1997, dated 1998)

Assays:
Strep. pyogenes EES61 = assay: In vitro antibacterial activity, agar dilution MIC; format: cell-based; settings: Strep. pyogenes EES61; BHI agar dilution, 20-24 hours
Method: (§1) Each plate was inoculated with 1:100 (or 1:10 for slow-growing strains, primarily Micrococcus and Streptococcus) dilutions of up to 32 different microorganisms, using a Steers replicator block calibrated to deliver approximately 10^4 colony forming units (CFUs). The inoculated plates were incubated at from about 35° C. to about 37° C. for approximately 20-24 hours. In addition, a control plate using BHI agar containing no test compound was prepared and incubated at the beginning and at the end of each test. The quinolone antibacterial ciprofloxacin was used as a control ("Cntl").
(§2) The MIC was defined as the lowest concentration of test compound yielding no growth (a slight haze or sparsely isolated colonies at the inoculum spot) as compared to the growth control containing no test compound.

Staph. aureus CMX 553 = assay: In vitro antibacterial activity, agar dilution MIC; format: cell-based; settings: Staph. aureus CMX 553; BHI agar dilution, 20-24 hours
Method: as §1, §2

P. aeruginosa 2862 = assay: In vitro antibacterial activity, agar dilution MIC; format: cell-based; settings: P. aeruginosa 2862; BHI agar dilution, 20-24 hours
Method: as §1, §2

E. coli KNK 437 = assay: In vitro antibacterial activity, agar dilution MIC; format: cell-based; settings: E. coli KNK 437; BHI agar dilution, 20-24 hours
Method: as §1, §2

P. aeruginosa 5263 = settings: BHI agar dilution, 20-24 hours
Method: as §1, §2

[1] = test system: Acinetob. calcoaceticus CMX 669; assay: In vitro antibacterial activity, agar dilution MIC; format: cell-based; settings: Acinetob. calcoaceticus CMX 669; BHI agar dilution, 20-24 hours
Method: as §1, §2

P. aeruginosa A5007 = assay: In vitro antibacterial activity, agar dilution MIC; format: cell-based; settings: P. aeruginosa A5007; BHI agar dilution, 20-24 hours
Method: as §1, §2

E. coli H560 = assay: In vitro antibacterial activity, agar dilution MIC; format: cell-based; settings: E. coli H560; BHI agar dilution, 20-24 hours
Method: as §1, §2

[2] = test system: Staph. aureus 1775 Cipro. R.; assay: In vitro antibacterial activity, agar dilution MIC; format: cell-based; settings: Staph. aureus 1775 Cipro. R.; BHI agar dilution, 20-24 hours
Method: as §1, §2

M. luteus ATCC 4698 = assay: In vitro antibacterial activity, agar dilution MIC; format: cell-based; settings: M. luteus ATCC 4698; BHI agar dilution, 20-24 hours
Method: as §1, §2

M. luteus ATCC 9341 = assay: In vitro antibacterial activity, agar dilution MIC; format: cell-based; settings: M. luteus ATCC 9341; BHI agar dilution, 20-24 hours
Method: as §1, §2

[3] = test system: Entero. faecium ATCC 8043; assay: In vitro antibacterial activity, agar dilution MIC; format: cell-based; settings: Entero. faecium ATCC 8043; BHI agar dilution, 20-24 hours
Method: as §1, §2

Strep. bovis A5169 = assay: In vitro antibacterial activity, agar dilution MIC; format: cell-based; settings: Strep. bovis A5169; BHI agar dilution, 20-24 hours
Method: as §1, §2

P. aeruginosa K799/61 = assay: In vitro antibacterial activity, agar dilution MIC; format: cell-based; settings: P. aeruginosa K799/61; BHI agar dilution, 20-24 hours
Method: as §1, §2

[4] = test system: Klebs. pneumoniae ATCC 8045; assay: In vitro antibacterial activity, agar dilution MIC; format: cell-based; settings: Klebs. pneumoniae ATCC 8045; BHI agar dilution, 20-24 hours
Method: as §1, §2

P. aeruginosa BMH 10 = assay: In vitro antibacterial activity, agar dilution MIC; format: cell-based; settings: P. aeruginosa BMH 10; BHI agar dilution, 20-24 hours
Method: as §1, §2

Staph. aureus 642A = assay: In vitro antibacterial activity, agar dilution MIC; format: cell-based; settings: Staph. aureus 642A; BHI agar dilution, 20-24 hours
Method: as §1, §2

[5] = test system: Providencia stuartii CMX 640; assay: In vitro antibacterial activity, agar dilution MIC; format: cell-based; settings: Providencia stuartii CMX 640; BHI agar dilution, 20-24 hours
Method: as §1, §2

Escherichia coli Juhl = assay: In vitro antibacterial activity, agar dilution MIC; format: cell-based; settings: Escherichia coli Juhl; BHI agar dilution, 20-24 hours
Method: as §1, §2

[6] = test system: Strep. pyogenes 2548 INDUC; assay: microbe, parasite or virus in culture; format: cell-based; settings: Strep. pyogenes 2548 INDUC; BHI agar dilution, 20-24 hours
Method: as §1, §2

[7] = test system: Enter. aerogenes ATCC 13048; assay: In vitro antibacterial activity, agar dilution MIC; format: cell-based; settings: Enter. aerogenes ATCC 13048; BHI agar dilution, 20-24 hours
Method: as §1, §2

Staph. aureus 5278 = assay: In vitro antibacterial activity, agar dilution MIC; format: cell-based; settings: Staph. aureus 5278; BHI agar dilution, 20-24 hours
Method: as §1, §2

P. aeruginosa K799/WT = assay: In vitro antibacterial activity, agar dilution MIC; format: cell-based; settings: P. aeruginosa K799/WT; BHI agar dilution, 20-24 hours
Method: as §1, §2

Staph. epidermidis 3519 = assay: In vitro antibacterial activity, agar dilution MIC; format: cell-based; settings: Staph. epidermidis 3519; BHI agar dilution, 20-24 hours
Method: as §1, §2

E. coli SS = assay: In vitro antibacterial activity, agar dilution MIC; format: cell-based; settings: E. coli SS; BHI agar dilution, 20-24 hours
Method: as §1, §2

[8] = test system: Nocardia asteroides ATCC 9970; assay: In vitro antibacterial activity, agar dilution MIC; format: cell-based; settings: Nocardia asteroides ATCC 9970; BHI agar dilution, 20-24 hours
Method: as §1, §2

Myco. smegmatis ATCC 114 = assay: In vitro antibacterial activity, agar dilution MIC; format: cell-based; settings: Myco. smegmatis ATCC 114; BHI agar dilution, 20-24 hours
Method: as §1, §2

Staph. aureus A5177 = assay: In vitro antibacterial activity, agar dilution MIC; format: cell-based; settings: Staph. aureus A5177; BHI agar dilution, 20-24 hours
Method: as §1, §2

E. coli DC-2 = assay: In vitro antibacterial activity, agar dilution MIC; format: cell-based; settings: E. coli DC-2; BHI agar dilution, 20-24 hours
Method: as §1, §2

Candida albicans CCH 442 = assay: In vitro antibacterial activity, agar dilution MIC; settings: Candida albicans CCH 442; BHI agar dilution, 20-24 hours
Method: as §1, §2

[9] = test system: Strep. agalactiae CMX 508; assay: In vitro antibacterial activity, agar dilution MIC; format: cell-based; settings: Strep. agalactiae CMX 508; BHI agar dilution, 20-24 hours
Method: as §1, §2

Staph. aureus ATCC 6538P = assay: In vitro antibacterial activity, agar dilution MIC; format: cell-based; settings: Staph. aureus ATCC 6538P; BHI agar dilution, 20-24 hours
Method: as §1, §2

Pseudomonas cepacia 296I = assay: In vitro antibacterial activity, agar dilution MIC; format: cell-based; settings: Pseudomonas cepacia 296I; BHI agar dilution, 20-24 hours
Method: as §1, §2

[10] = test system: Strep. pyogenes 930 CONST; assay: In vitro antibacterial activity, agar dilution MIC; format: cell-based; settings: Strep. pyogenes 930 CONST; BHI agar dilution, 20-24 hours
Method: as §1, §2

CC[C@@H]1CN(c2c(F)cn3c(=O)c(C(=O)O)cc(C4CC4)c3c2C)C[C@H]1N.Cl (single isomer, unassigned; diastereomer a) [Ex. 2, 8-(trans-3-amino-4-ethylpyrrolidin-1-yl)-1-cyclopropyl-7-fluoro-4H-9-methyl-4-oxo-quinolizine-3-carboxylic acid hydrochloride diastereomer A]
MIC (Strep. pyogenes EES61): 0.02 µg/mL
MIC (Staph. aureus CMX 553): 0.02 µg/mL
MIC (P. aeruginosa 2862): 6.2 µg/mL
MIC (E. coli KNK 437): 0.1 µg/mL
MIC (P. aeruginosa 5263): 3.1 µg/mL
MIC [1]: 0.05 µg/mL
MIC (P. aeruginosa A5007): 0.39 µg/mL
MIC (E. coli H560): 0.01 µg/mL
MIC [2]: 0.78 µg/mL
MIC (M. luteus ATCC 4698): 0.05 µg/mL
MIC (M. luteus ATCC 9341): 0.05 µg/mL
MIC [3]: 0.05 µg/mL
MIC (Strep. bovis A5169): 0.1 µg/mL
MIC (P. aeruginosa K799/61): 0.1 µg/mL
MIC [4]: 0.05 µg/mL
MIC (P. aeruginosa BMH 10): 0.2 µg/mL
MIC (Staph. aureus 642A): 0.02 µg/mL
MIC [5]: 0.39 µg/mL
MIC (Escherichia coli Juhl): 0.01 µg/mL
MIC [6]: 0.05 µg/mL
MIC [7]: 0.1 µg/mL
MIC (Staph. aureus 5278): 0.05 µg/mL
MIC (P. aeruginosa K799/WT): 0.78 µg/mL
MIC (Staph. epidermidis 3519): 0.05 µg/mL
MIC (E. coli SS): 0.001 µg/mL
MIC [8]: 0.78 µg/mL
MIC (Myco. smegmatis ATCC 114): 0.02 µg/mL
MIC (Staph. aureus A5177): 0.02 µg/mL
MIC (E. coli DC-2): 0.1 µg/mL
MIC (Candida albicans CCH 442): > 100 µg/mL
MIC [9]: 0.02 µg/mL
MIC (Staph. aureus ATCC 6538P): 0.02 µg/mL
MIC (Pseudomonas cepacia 296I): 1.56 µg/mL
MIC [10]: 0.05 µg/mL
